Measurements from US9708287B2, “Chiral compounds, compositions, products and methods employing same” (Cayman Chemical Company Incorporated, priority 2012, dated 2017).

Test system: human skin
Experiment: topical administration to a human in need of beautifying
Format: in vivo
Conditions: twice daily treatments, after several weeks
Method: The chiral, non-racemic analog, (+) deoxyArbutin ((+)-dA), prepared as described in Example I is administered topically to a human in need of beautifying.

## Oc1ccc(OC2CCCCO2)cc1 (racemic) [(+) deoxyArbutin, 4-(tetrahydro-2H-pyran-2-yloxy)phenol]
  health and vitality of the treated areas of the skin: increased health and vitality
  pigmentation of the treated areas of the skin: decreased pigmentation
